Data reported in PubChem BioAssay AID256 (DTP/NCI, 2004).
Where “and” joins values, the source holds several entries; their conditions need not be identical. Equal entries are not always repeated. Inconclusive results and toxic doses are left out.

Test system: CD2F1 mice, L1210 leukemia ip, survival T/C
Assay: NCI In Vivo Anticancer Drug Screen. Data for tumor model L1210 Leukemia (intraperitoneal) in CD2F1 (CDF1) mice
Conditions: higher = longer survival
Method in brief: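 Transplantable tumor in mice; compound-treated vs vehicle-treated groups. Read-out = treated/control ratio of the measured endpoint.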

[1] = endpoint: mean survival time, dose: 12.5 mg/kg/injection, schedule: Q04DX003 (ip), vehicle: saline
[2] = endpoint: mean survival time, dose: 25.0 mg/kg/injection, schedule: Q04DX003 (ip), vehicle: saline
[3] = endpoint: mean survival time, dose: 50.0 mg/kg/injection, schedule: Q04DX003 (ip), vehicle: saline
[4] = endpoint: mean survival time, dose: 100.0 mg/kg/injection, schedule: Q01DX001 (ip), vehicle: saline
[5] = endpoint: mean survival time, dose: 200.0 mg/kg/injection, schedule: Q01DX001 (ip), vehicle: saline
[6] = endpoint: mean survival time, dose: 12.5 mg/kg/injection, schedule: Q01DX009 (ip), vehicle: Klucel (hydroxypropylcellulose) (HPC)
[7] = endpoint: mean survival time, dose: 25.0 mg/kg/injection, schedule: Q01DX009 (ip), vehicle: Klucel (hydroxypropylcellulose) (HPC)
[8] = endpoint: mean survival time, dose: 100.0 mg/kg/injection, schedule: Q04DX003 (ip), vehicle: saline with Tween-80
[9] = endpoint: mean survival time, dose: 100.0 mg/kg/injection, schedule: Q01DX009 (ip), vehicle: saline with Tween-80
[10] = endpoint: mean survival time, dose: 200.0 mg/kg/injection, schedule: Q01DX009 (ip), vehicle: saline with Tween-80
[11] = endpoint: mean survival time, dose: 400.0 mg/kg/injection, schedule: Q01DX009 (ip), vehicle: saline with Tween-80
[12] = endpoint: mean survival time, dose: 100.0 mg/kg/injection, schedule: Q04DX002 (ip), vehicle: saline with Tween-80
[13] = endpoint: mean survival time, dose: 200.0 mg/kg/injection, schedule: Q04DX002 (ip), vehicle: saline with Tween-80
[14] = endpoint: mean survival time, dose: 200.0 mg/kg/injection, schedule: Q04DX003 (ip), vehicle: saline with Tween-80
[15] = endpoint: mean survival time, dose: 400.0 mg/kg/injection, schedule: Q04DX003 (ip), vehicle: saline with Tween-80

For O=C(O)C(O)C(O)C(O)C(O)CO.O=C(O)C(O)C(O)C(O)C(O)CO.[NH-]C1CCCCC1[NH-].[Pt+2] (stereo unspecified), the T/C (endpoint: mean survival time, dose: 3.13 mg/kg/injection, schedule: Q04DX003 (ip), vehicle: other) was 123 % of control, the T/C (endpoint: mean survival time, dose: 6.25 mg/kg/injection, schedule: Q04DX003 (ip), vehicle: saline) was 119 % of control and the T/C [1] was 166 % of control. The T/C (endpoint: mean survival time, dose: 25.0 mg/kg/injection, schedule: Q04DX003 (ip), vehicle: other) was 162 % of control, the T/C [2] was 304 % of control and the T/C (endpoint: mean survival time, dose: 50.0 mg/kg/injection, schedule: Q04DX003 (ip), vehicle: other) was 231 % of control. The T/C [3] was 281 % of control and 225 % of control and the T/C (endpoint: mean survival time, dose: 100.0 mg/kg/injection, schedule: Q04DX003 (ip), vehicle: saline) was 306 % of control and 280 % of control.
Cc1cc(Nc2ccc3c(c2)OCO3)c2cc3c(cc2n1)OCO3 was tested, and the T/C (endpoint: median survival time, dose: 25.0 mg/kg/injection, schedule: Q01DX009 (ip), vehicle: Klucel (hydroxypropylcellulose) (HPC)) was 105 % of control, the T/C (endpoint: median survival time, dose: 50.0 mg/kg/injection, schedule: Q01DX009 (ip), vehicle: Klucel (hydroxypropylcellulose) (HPC)) was 121 % of control and the T/C (endpoint: median survival time, dose: 100.0 mg/kg/injection, schedule: Q01DX009 (ip), vehicle: Klucel (hydroxypropylcellulose) (HPC)) was 94 % of control.
In the case of Nc1ncnc2c1ncn2C1OC(CF)C(O)C1O (stereo unspecified), the T/C [4] was 104 % of control and the T/C [5] was 98 % of control.
In the case of CC(=O)OC1CC2C=CCC21 (stereo unspecified), the T/C (endpoint: mean survival time, dose: 100.0 mg/kg/injection, schedule: Q01DX001 (ip), vehicle: saline with Tween-80) was 100 % of control, the T/C (endpoint: mean survival time, dose: 200.0 mg/kg/injection, schedule: Q01DX001 (ip), vehicle: saline with Tween-80) was 96 % of control and the T/C (endpoint: mean survival time, dose: 400.0 mg/kg/injection, schedule: Q01DX001 (ip), vehicle: saline with Tween-80) was 96 % of control.
With c1ccc(-c2c3ccccc3c(-c3ccccc3)c3c2ccc2ccccc23)cc1 the T/C (endpoint: mean survival time, dose: 6.25 mg/kg/injection, schedule: Q01DX009 (ip), vehicle: Klucel (hydroxypropylcellulose) (HPC)) was 89 % of control, the T/C [6] was 89 % of control and the T/C [7] was 91 % of control.
With CN(C)/N=C(\CBr)c1ccc([N+](=O)[O-])cc1 the T/C [4] was 100 % of control and the T/C [5] was 94 % of control.
With COc1ccc2nc3cc(Cl)ccc3c(NCCC[N+](C)(C)CCCCCCCCCC[N+](C)(C)CCCNc3c4ccc(Cl)cc4nc4ccc(OC)cc34)c2c1 the T/C (endpoint: mean survival time, dose: 6.25 mg/kg/injection, schedule: Q01DX009 (ip), vehicle: saline with Tween-80) was 105 % of control.
In the case of c1ccc(C2NNC(c3ccccc3)NN2)cc1 (stereo unspecified), the T/C (endpoint: mean survival time, dose: 100.0 mg/kg/injection, schedule: Q01DX001 (ip), vehicle: other) was 100 % of control, the T/C (endpoint: mean survival time, dose: 200.0 mg/kg/injection, schedule: Q01DX001 (ip), vehicle: other) was 97 % of control and the T/C (endpoint: mean survival time, dose: 400.0 mg/kg/injection, schedule: Q01DX001 (ip), vehicle: other) was 92 % of control.
In the case of Cc1cccc(-n2c(N)cc(=O)[nH]c2=S)n1, the T/C [8] was 96 % of control.
Cc1ccc(S(=O)(=O)OCC(C)C)cc1 was tested, and the T/C [9] was 101 % of control, the T/C [10] was 101 % of control and the T/C [11] was 98 % of control.
For O=C=N/C=C/NC(=O)Nc1cccc(Cl)c1, the T/C [12] was 104 % of control, the T/C [13] was 93 % of control and the T/C (endpoint: mean survival time, dose: 400.0 mg/kg/injection, schedule: Q04DX002 (ip), vehicle: saline with Tween-80) was 101 % of control.
With Cc1c(-c2ccc3c(c2)OCO3)no[n+]1[O-] the T/C [8] was 91 % of control, the T/C [14] was 98 % of control and the T/C [15] was 88 % of control.
With CN(C)/C=N/NC(=O)c1ccccc1O the T/C [8] was 98 % of control, the T/C [14] was 100 % of control and the T/C [15] was 100 % of control.
With Cc1ccccc1C(O)(c1ccccc1C)c1ccccc1C the T/C (endpoint: mean survival time, dose: 100.0 mg/kg/injection, schedule: Q04DX003 (ip), vehicle: acetone) was 96 % of control, the T/C (endpoint: mean survival time, dose: 200.0 mg/kg/injection, schedule: Q04DX003 (ip), vehicle: acetone) was 98 % of control and the T/C (endpoint: mean survival time, dose: 400.0 mg/kg/injection, schedule: Q04DX003 (ip), vehicle: acetone) was 98 % of control.
Cc1cc(Cl)ccc1NC(=O)SCc1ccc(Cl)cc1 was tested, and the T/C (endpoint: mean survival time, dose: 50.0 mg/kg/injection, schedule: Q01DX009 (ip), vehicle: saline with Tween-80) was 95 % of control, the T/C [9] was 100 % of control and the T/C [10] was 103 % of control.
O=C(O)c1[nH]c(=O)[nH]c(=O)c1F.[Ga] was tested, and the T/C (endpoint: mean survival time, dose: 54.0 mg/kg/injection, schedule: Q01DX001 (ip), vehicle: saline with Tween-80) was 123 % of control and the T/C (endpoint: mean survival time, dose: 177.0 mg/kg/injection, schedule: Q01DX001 (ip), vehicle: saline with Tween-80) was 159 % of control.
In the case of Cc1nc(Cl)c2cnccn12, the T/C [1] was 96 % of control, the T/C [2] was 100 % of control and the T/C [3] was 104 % of control.
In the case of CCCCCCCCCCCCOCCOCCOCCOCCO, the T/C [12] was 98 % of control and the T/C [13] was 102 % of control.
In the case of CCCCCCCC/C=C\CCCCCCCC(=O)NCCCN(C)CCCNC(=O)CCCCCCC/C=C/CCCCCCCC, the T/C (endpoint: mean survival time, dose: 75.0 mg/kg/injection, schedule: Q01DX001 (ip), vehicle: other) was 100 % of control, the T/C (endpoint: mean survival time, dose: 150.0 mg/kg/injection, schedule: Q01DX001 (ip), vehicle: other) was 104 % of control and the T/C (endpoint: mean survival time, dose: 300.0 mg/kg/injection, schedule: Q01DX001 (ip), vehicle: other) was 100 % of control.
Cc1ccc(N=Nc2c(N)nc(N)[nH]c2=O)cc1C was tested, and the T/C [9] was 97 % of control, the T/C [10] was 97 % of control and the T/C [11] was 99 % of control.
For COc1ccc(F)cc1NC(=O)OC(C)C, the T/C [9] was 92 % of control, the T/C [10] was 96 % of control and the T/C [11] was 96 % of control.
For CC1CCCC(CN=Cc2ccccc2O)[N-]1.CC1CCCC(CN=Cc2ccccc2O)[N-]1.[Ni+2] (stereo unspecified), the T/C (endpoint: mean survival time, dose: 6.25 mg/kg/injection, schedule: Q04DX002 (ip), vehicle: saline with Tween-80) was 98 % of control, the T/C (endpoint: mean survival time, dose: 12.5 mg/kg/injection, schedule: Q04DX002 (ip), vehicle: saline with Tween-80) was 95 % of control and the T/C (endpoint: mean survival time, dose: 25.0 mg/kg/injection, schedule: Q04DX002 (ip), vehicle: saline with Tween-80) was 91 % of control and 95 % of control. The T/C (endpoint: mean survival time, dose: 50.0 mg/kg/injection, schedule: Q04DX002 (ip), vehicle: saline with Tween-80) was 91 % of control and the T/C [12] was 97 % of control.
With COc1cc(NCCCNCC(C)(C)C)c2ncccc2c1 the T/C (endpoint: mean survival time, dose: 1.25 mg/kg/injection, schedule: Q01DX009 (ip), vehicle: Klucel (hydroxypropylcellulose) (HPC)) was 98 % of control, the T/C (endpoint: mean survival time, dose: 2.5 mg/kg/injection, schedule: Q01DX009 (ip), vehicle: Klucel (hydroxypropylcellulose) (HPC)) was 105 % of control and the T/C (endpoint: mean survival time, dose: 5.0 mg/kg/injection, schedule: Q01DX009 (ip), vehicle: Klucel (hydroxypropylcellulose) (HPC)) was 100 % of control. The T/C (endpoint: mean survival time, dose: 10.0 mg/kg/injection, schedule: Q01DX009 (ip), vehicle: Klucel (hydroxypropylcellulose) (HPC)) was 105 % of control.
With [Cl][Pt+2][Cl].[NH-]c1ccc(C(=O)c2ccccc2)cc1[NH-] the T/C (endpoint: mean survival time, dose: 2.5 mg/kg/injection, schedule: Q01DX009 (ip), vehicle: saline with Tween-80) was 105 % of control, the T/C (endpoint: mean survival time, dose: 5.0 mg/kg/injection, schedule: Q01DX009 (ip), vehicle: saline with Tween-80) was 105 % of control and the T/C (endpoint: mean survival time, dose: 10.0 mg/kg/injection, schedule: Q01DX009 (ip), vehicle: saline with Tween-80) was 106 % of control. The T/C (endpoint: mean survival time, dose: 20.0 mg/kg/injection, schedule: Q01DX009 (ip), vehicle: saline with Tween-80) was 100 % of control and 106 % of control, the T/C (endpoint: mean survival time, dose: 40.0 mg/kg/injection, schedule: Q01DX009 (ip), vehicle: saline with Tween-80) was 102 % of control and 105 % of control and the T/C (endpoint: mean survival time, dose: 80.0 mg/kg/injection, schedule: Q01DX009 (ip), vehicle: saline with Tween-80) was 101 % of control. For the same compound, the T/C (endpoint: mean survival time, dose: 160.0 mg/kg/injection, schedule: Q01DX009 (ip), vehicle: saline with Tween-80) was 100 % of control and the T/C (endpoint: mean survival time, dose: 320.0 mg/kg/injection, schedule: Q01DX009 (ip), vehicle: saline with Tween-80) was 100 % of control.
CC(C)(CO)CBr was tested, and the T/C [9] was 95 % of control, the T/C [8] was 95 % of control and the T/C [10] was 102 % of control. The T/C [14] was 97 % of control, the T/C [11] was 98 % of control and the T/C [15] was 95 % of control.
In the case of CN(C)C(=O)N(c1ccccc1)c1ccccc1, the T/C [12] was 98 % of control and the T/C [13] was 90 % of control.
With COc1cc2ccc(C=O)cc2cc1OC the T/C [6] was 97 % of control, the T/C [7] was 94 % of control and the T/C (endpoint: mean survival time, dose: 50.0 mg/kg/injection, schedule: Q01DX009 (ip), vehicle: Klucel (hydroxypropylcellulose) (HPC)) was 92 % of control. For the same compound, the T/C (endpoint: mean survival time, dose: 100.0 mg/kg/injection, schedule: Q01DX009 (ip), vehicle: Klucel (hydroxypropylcellulose) (HPC)) was 86 % of control, the T/C (endpoint: mean survival time, dose: 200.0 mg/kg/injection, schedule: Q01DX009 (ip), vehicle: Klucel (hydroxypropylcellulose) (HPC)) was 86 % of control and the T/C (endpoint: mean survival time, dose: 400.0 mg/kg/injection, schedule: Q01DX009 (ip), vehicle: Klucel (hydroxypropylcellulose) (HPC)) was 90 % of control.
